Target: T1, full length active recombinant SYK enzyme (Homo sapiens, UniProt P43405)
T1 construct: full length active recombinant SYK enzyme (Millipore, Calif.); purchased Millipore
Experiment: Inhibition of Syk tyrosine phosphorylation activity (LANCE TR-FRET kinase assay)
Assay type: biochemical
Source text: This example illustrates methods for evaluating the compounds of the invention, along with results obtained for such assays. The in vitro and in vivo human Syk activities of the inventive compounds can be determined by various procedures known in the art, such as a test for their ability to inhibit the activity of human plasma Syk. […] The IC50 value is the concentration (in nM) of the compound required to provide 50% inhibition of human Syk proteolytic activity.
Potency of candidate molecules for inhibiting Syk tyrosine phosphorylation activity is assessed by measuring the ability of a test compound to inhibit Syk-mediated tyrosine phosphorylation of a Syk-specific substrate.
SYK tyrosine phosphorylation activity is measured using the LANCE™ Technology developed by Perkin Elmer Life and Analytical Sciences (Boston, Mass.). LANCE™ refers to homogeneous time resolved fluorometry applications using techniques such as time-resolved fluorescence resonance energy transfer assay (TR-FRET) (see generally for procedures in Perkin Elmer Application Note—How to Optimize a Tyrosine Kinase Assay Using Time Resolved Fluorescence-Based LANCE Detection, wwww.perkinelmer.com/lifesciences). The assay principle involves detection of a phosphorylated substrate using energy transfer from a phosphospecific europium-labeled antibody to streptavidin-allophycocyanin as an acceptor.
To test the ability of candidate molecules to inhibit SYK tyrosine phosphorylation activity, molecules are reconstituted in 30% DMSO and serially diluted 1:3 with the final dilution containing DMSO in the absence of the candidate molecule. The final DMSO concentration in the assay is 3%. Kinase assays are performed as a two part reaction. The first reaction is a kinase reaction and which comprises of a candidate molecule, full length active recombinant SYK enzyme (Millipore, Calif.) and biotin-labeled SYK-specific substrate biotin-[…]-OH. The second reaction involves termination of the kinase reaction and the simultaneous addition of the detection reagents-europium-labeled anti-phosphotyrosine reagent (Eu-W1024-PY100, Perkin Elmer, Boston, Mass.) and Streptavidin-Allophycocyanin detection reagent (SA-APC, Prozyme, Calif.). The kinase reaction is performed in a black U-bottom 96-well microtitre plate. The final reaction volume is 50 μL and contains a final concentration of 1 nM active SYK enzyme, 550 nM SYK-substrate, and 100 μM ATP diluted in a buffer containing 50 mM Tris pH 7.5, 5 mM MgCl2, and 1 mM DTT. The reaction is allowed to proceed for 1 hour at room temperature. The quench buffer contains 100 mM Tris pH 7.5, 300 mM NaCl2, 20 mM EDTA, 0.02% Brij35, and 0.5% BSA. The detection reagents are added to the reaction mixture at the following dilutions-1:500 for Eu-W1024-PY100 and 1:250 for SA-APC. The kinase reaction is terminated by the addition of 50 μL quench buffer containing the detection reagents. The detection is allowed to proceed for 1 hr at room temperature. Detection of the phosphorlated substrate in the absence and presence of inhibitors is measured in the TR-FRET instrument, Analyst HT (Molecular Probes, Sunnyvale, Calif.) and the condition for measurements are set up using CriterionHost Release 2.0 (Molecular Probes, Sunnyvale, Calif.). The settings used are a follows: excitation 360 nm, emission 665-7.5 nm, beam splitter 350 nm 50/50, flash 100 pulses, delay 60 us, integration 400 us, z-height 2 mm. Inhibition of SYK-tyrosine kinase activity is calculated as the maximum response observed in the presence of inhibitor, compared to that in the absence of inhibitor. IC50s were derived by non-linear regression analysis.

IC50 | SMILES
10 to 100 nM | COc1nc(N[C@@H](C(N)=O)C(C)C)nc(Nc2ccc3ncccc3c2)c1C(N)=O [Example 15, (R)-2-(1-amino-3-methyl-1-oxobutan-2-ylamino)-4-methoxy-6-(quinolin-6-ylamino)pyrimidine-5-carboxamide]
< 1 nM | CC(C)C[C@@H](Nc1nc(Nc2cnc3ccccc3c2)c(C(N)=O)c(=O)[nH]1)C(N)=O [Example 108, (R)-2-(1-amino-4-methyl-1-oxopentan-2-ylamino)-6-oxo-4-(quinolin-3-ylamino)-1,6-dihydropyrimidine-5-carboxamide]
1 to 10 nM | CC[C@@H](Nc1nc(Nc2cccc(C)c2)c(C(N)=O)c(=O)[nH]1)C(N)=O [Example 11, (R)-2-(1-amino-1-oxobutan-2-ylamino)-6-oxo-4-(m-tolylamino)-1,6-dihydropyrimidine-5-carboxamide]
< 1 nM | CC(C)C[C@@H](Nc1nc(Nc2ccc3ncccc3c2)c(C(N)=O)c(=O)[nH]1)C(N)=O [Example 13, (R)-2-(1-amino-4-methyl-1-oxopentan-2-ylamino)-6-oxo-4-(quinolin-6-ylamino)-1,6-dihydropyrimidine-5-carboxamide]
> 1000 nM | Cc1cc(C)cc(Nc2nc(NC[C@H](C)N)[nH]c(=O)c2C(N)=O)c1 [Example 54, (S)-2-(2-aminopropylamino)-4-(3,5-dimethylphenylamino)-6-oxo-1,6-dihydropyrimidine-5-carboxamide]
100 to 1000 nM | Cc1cc(C)cc(Nc2nc(Nc3ccc(S(N)(=O)=O)cc3)[nH]c(=O)c2C(N)=O)c1 [Example 61, 4-(4-(3,5-dimethylphenylamino)-5-carboxamide-6-oxo-1,6-dihydropyrimidin-2-ylamino)benzenesulfonamide]
1 to 10 nM | CC[C@@H](Nc1nc(Nc2cccc(-n3ccnc3)c2)c(C(N)=O)c(=O)[nH]1)C(N)=O [Example 119, (R)-2-(1-amino-1-oxobutan-2-ylamino)-4-(3-(1H-imidazol-1-yl)phenylamino)-6-oxo-1,6-dihydropyrimidine-5-carboxamide]
1 to 10 nM | CC(C)C[C@@H](Nc1nc(Nc2cccc(-c3ccccn3)c2)c(C(N)=O)c(=O)[nH]1)C(N)=O [Example 40, (R)-2-(1-amino-4-methyl-1-oxopentan-2-ylamino)-6-oxo-4-(3-(pyridin-2-yl)phenylamino)-1,6-dihydropyrimidine-5-carboxamide]
> 1000 nM | COc1nc(Nc2ccc(N3CCOCC3)cc2)nc(Nc2cccc(C)c2)c1C(N)=O [Example 70, 4-(m-toluidino)-6-methoxy-2-(4-morpholinophenylamino)pyrimidine-5-carboxamide]
100 to 1000 nM | COc1nc(NC[C@H](C)N)nc(Nc2cc(C)cc(C)c2)c1C(N)=O [Example 68, (S)-2-(2-aminopropylamino)-4-(3,5-dimethylphenylamino)-6-methoxypyrimidine-5-carboxamide]
100 to 1000 nM | COc1nc(N[C@H](C)C(N)=O)nc(Nc2cc(C)cc(C)c2)c1C(N)=O [Example 66, (R)-2-(1-amino-1-oxopropan-2-ylamino)-4-(3,5-dimethylphenylamino)-6-methoxypyrimidine-5-carboxamide]
< 1 nM | CC(C)[C@@H](Nc1nc(Nc2ccc3[nH]ncc3c2)c(C(N)=O)c(=O)[nH]1)C(N)=O [Example 26, (R)-4-(1H-indazol-5-ylamino)-2-(1-amino-3-methyl-1-oxobutan-2-ylamino)-6-oxo-1,6-dihydropyrimidine-5-carboxamide]
100 to 1000 nM | COc1nc(NCC(N)=O)nc(Nc2cc(C)cc(C)c2)c1C(N)=O [Example 50, 2-(2-amino-2-oxoethylamino)-4-(3,5-dimethylphenylamino)-6-methoxypyrimidine-5-carboxamide]
1 to 10 nM | Cc1cccc(Nc2nc(N[C@H](CC(C)C)C(N)=O)[nH]c(=O)c2C(N)=O)c1 [Example 9, (R)-2-(1-amino-4-methyl-1-oxopentan-2-ylamino)-6-oxo-4-(m-tolylamino)-1,6-dihydropyrimidine-5-carboxamide]
1 to 10 nM | CC[C@@H](Nc1nc(Nc2ccc(-n3cccn3)cc2)c(C(N)=O)c(=O)[nH]1)C(N)=O [Example 24]
1 to 10 nM | CC[C@@H](Nc1nc(Nc2ccc3c(c2)OCCO3)c(C(N)=O)c(=O)[nH]1)C(N)=O [Example 86, (R)-2-(1-amino-1-oxobutan-2-ylamino)-4-(2,3-dihydrobenzo[b][1,4]dioxin-6-ylamino)-6-oxo-1,6-dihydropyrimidine-5-carboxamide]
1 to 10 nM | CC[C@@H](Nc1nc(Nc2ccc(OCCOC)cc2)c(C(N)=O)c(=O)[nH]1)C(N)=O [Example 94, (R)-2-(1-amino-1-oxobutan-2-ylamino)-4-(4-(2-methoxyethoxy)phenylamino)-6-oxo-1,6-dihydropyrimidine-5-carboxamide]
1 to 10 nM | CC(C)C[C@@H](Nc1nc(Nc2ccc(-n3ccnc3)cc2)c(C(N)=O)c(=O)[nH]1)C(N)=O [Example 115, (R)-2-(1-amino-4-methyl-1-oxopentan-2-ylamino)-4-(4-(1H-imidazol-1-yl)phenylamino)-6-oxo-1,6-dihydropyrimidine-5-carboxamide]
10 to 100 nM | NC(=O)c1c(Nc2ccc(S(N)(=O)=O)cc2)nc(NC2CC2)[nH]c1=O [Example 42, 2-(cyclopropylamino)-6-oxo-4-(4-sulfamoylphenylamino)-1,6-dihydropyrimidine-5-carboxamide]
1 to 10 nM | CC(C)C[C@@H](Nc1nc(Nc2cccc(OC(F)(F)F)c2)c(C(N)=O)c(=O)[nH]1)C(N)=O [Example 101, (R)-2-(1-amino-4-methyl-1-oxopentan-2-ylamino)-4-(3-(trifluoromethoxy)phenylamino)-6-oxo-1,6-dihydropyrimidine-5-carboxamide]
1 to 10 nM | CC[C@@H](Nc1nc(Nc2cccc(-c3ncccc3F)c2)c(C(N)=O)c(=O)[nH]1)C(N)=O [Example 81, (R)-2-(1-amino-1-oxobutan-2-ylamino)-6-oxo-4-(3-(3-fluoropyridin-2-yl)phenylamino)-1,6-dihydropyrimidine-5-carboxamide]
10 to 100 nM | CNCCNc1nc(Nc2cccc(-n3nccn3)c2)c(C(N)=O)c(=O)[nH]1 [Example 23, 4-(3-(2H-1,2,3-triazol-2-yl)phenylamino)-2-(2-(methylamino)ethylamino)-6-oxo-1,6-dihydropyrimidine-5-carboxamide]
> 1000 nM | CNC(=O)[C@@H](CC(C)C)Nc1nc(Nc2cccc(-n3cccn3)c2)c(C(N)=O)c(=O)[nH]1 [Example 104, (R)-4-(3-(1H-pyrazol-1-yl)phenylamino)-2-(4-methyl-1-(methylamino)-1-oxopentan-2-ylamino)-6-oxo-1,6-dihydropyrimidine-5-carboxamide]
> 1000 nM | CC(=O)N1CCN(c2ccc(Nc3nc(NC4CCC4)c(C(N)=O)c(=O)[nH]3)cc2)CC1 [Example 47, 2-(4-(4-acetylpiperazin-1-yl)phenylamino)-4-(cyclobutylamino)-6-oxo-1,6-dihydropyrimidine-5-carboxamide]
1 to 10 nM | CC(C)C[C@@H](Nc1nc(Nc2ccc(-n3cccn3)cc2)c(C(N)=O)c(=O)[nH]1)C(N)=O [Example 18]
10 to 100 nM | CC[C@@H](Nc1nc(Nc2ccc3ncccc3c2)c(C(N)=O)c(OC)n1)C(N)=O [Example 16, (R)-2-(1-amino-1-oxobutan-2-ylamino)-4-methoxy-6-(quinolin-6-ylamino)pyrimidine-5-carboxamide]
